Test results taken from US11110114B2, “Dinucleotides” (OXFORD UNIVERSITY INNOVATION LIMITED, priority 2017, dated 2021).
Read-outs that look alike come from different tables or passages of the source. In the oligonucleotide strings, read from the 5' end, every base follows the letter of its sugar. An asterisk marks phosphorothioate; unmarked linkages are phosphodiester. Other units and linkages are bracketed, terminal groups are in braces. A string of capitals states the bases alone. [tz] = triazole internucleoside linkage; l = locked nucleic acid (LNA); [5mC] = 5-methylcytosine; d = 2'-deoxy (DNA)

What was measured:
Format in all cases: binding
[1] = test system: RNA Target 3′-rGAG UGM UAG ACG A; assay: Mismatch discrimination by UV melting (Table 3)
Description: (§1) UV DNA melting curves were recorded in a Cary 4000 Scan UV-Visible Spectrophotometer using 3 μM of each oligonucleotide in a 10 mM phosphate buffer containing 200 mM NaCl at pH 7.0. Samples were annealed by heating to 85° C. (10° C./min) and then slowly cooling to 20° C. (1° C./min). As these six successive cycles (heating and cooling) were performed at a gradient of 1° C./min, the change in UV absorbance at 260 nm was recorded. The melting temperature was calculated from the 1st derivative of the melting curve using in built software.

[2] = test system: DNA target 5′-dGCT GCA GGC GTC G (SEQ ID NO: 35); settings: for Tm DNA target: pH 7
[3] = test system: RNA target 5′-rGCU GCA GGC GUC G (SEQ ID NO: 36); settings: for Tm RNA target: pH 7
[4] = test system: DNA target: 5′-dGCT GGA GAG GTC G (SEQ ID NO: 39)
[5] = test system: RNA Target 3′-rGCUGCGMACGUCG; assay: Mismatch discrimination by UV melting, single triazole linkage MeC-T step (Table 6)
[6] = test system: DNA target: 5′-dGCT GCA AGC GTC G (SEQ ID NO: 48); assay: UV melting, single triazole linkage, DNA target (Table 8)
[7] = test system: RNA target: 5′-rGCU GCA AGC GUC G (SEQ ID NO: 49); assay: UV melting, single triazole linkage, RNA target (Table 8)
[8] = test system: DNA target; 5′-dGCT AGA GAA GTC G (SEQ ID NO: 52); assay: UV melting, two triazole linkages, DNA target (Table 9); settings: two MeC-T steps
Description: as §1
(§2) Next, oligonucleotides incorporating two triazole inter-nucleotide linkage steps were prepared by templated CuAAC click ligation reactions in the presence of a complementary splint. The ligated oligonucleotides were purified by denaturating 20% polyacrylamide gel electrophoresis and were evaluated for their binding affinity for complementary DNA/RNA strands (Table 9). […] When compared to unmodified ON7, a drop of only 0.8° C./modification was observed (ON8, RNA target). […] Since the improvement in binding affinity is specific for DNA:RNA hybrids, triazole-linked LNA could find use in selective probes for RNA targeting.

[9] = test system: RNA target; 5′-rGCU AGA GAA GUC G (SEQ ID NO: 18); assay: UV melting, two triazole linkages, RNA target (Table 9); settings: for TM RNA TARGET: two MeC-T steps
Description: as §1, §2

[10] = fully matched RNA target (M = A)
[11] = mismatch M = C, relative to the fully matched duplex (M = A)
[12] = mismatch M = G, relative to the fully matched duplex (M = A)
[13] = mismatch M = U, relative to the fully matched duplex (M = A)
[14] = 10 mM phosphate, 200 mM NaCl, pH 7.0, 3.0 μM each strand
[15] = relative to the unmodified duplex (ON1)

5′-CTC ACT ATC TG^MeCT (DNA dCdTdCdAdCdTdAdTdCdTdGd[5mC]dT) [ON100, reference compound]
TM M = A [1, 10]: 54.8 °C | ΔTM U ([1]; mismatch RNA target M = U, change in Tm relative to the fully matched duplex (M = A)): -11.3

5′-d CGACG^MeCp^MeCTGCAGC (DNA dCdGdAdCdGd[5mC]d[5mC]dTdGdCdAdGdC) [ON33, reference compound]
Tm DNA target [2]: 68.7 °C | Tm RNA target [3]: 69.1 °C

5′-d CGACG^MeCp^MeC^LTGCAGC (DNA dCdGdAdCdGd[5mC]l[5mC]dTdGdCdAdGdC) [ON34, reference compound]
ΔTm DNA target [2]: +3.3 | Tm DNA target [2]: 72 °C | ΔTm RNA target [3]: +5.6 | Tm RNA target [3]: 74.7 °C

5′-d CGACG^MeCt^MeCTGCAGC (DNA dCdGdAdCdGd[5mC][tz]d[5mC]dTdGdCdAdGdC) [ON12]
ΔTm DNA target [2]: -6.4 | Tm DNA target [2]: 62 °C | ΔTm RNA target [3]: -5.8 | Tm RNA target [3]: 63.4 °C

5′-dCGACG^MeCt^MeC^LTGCAGC (DNA dCdGdAdCdGd[5mC][tz]l[5mC]dTdGdCdAdGdC) [ON11]
ΔTm DNA target [2]: -5.1 | Tm DNA target [2]: 63.5 °C | ΔTm RNA target [3]: -0.5 | Tm RNA target [3]: 68.6 °C

5′-dCGA^MeCp^MeCTCT^MeCp^MeCAGC (DNA dCdGdAd[5mC]d[5mC]dTdCdTd[5mC]d[5mC]dAdGdC) [ON35, reference compound]
Tm DNA target [4]: 66.6 °C

5′-dCGA^MeCp^MeC^LTCT^MeCp^MeC^LAGC [ON36, reference compound]
Tm DNA target [4]: 72.2 °C | ΔTm/mod DNA target [4]: +2.8

5′-dCGA^MeCt^MeCTCT^MeCt^MeCAGC [ON14]
Tm DNA target [4]: 51.9 °C | ΔTm/mod DNA target [4]: -7.3

5′-dCGA^MeCt^MeC^LTCT^MeCt^MeC^LAGC [ON13]
Tm DNA target [4]: 56.4 °C | ΔTm/mod DNA target [4]: -5.1

CGACG^MeCTTGCAGC (dCdGdAdCdGd[5mC]dTdTdGdCdAdGdC) [ON1, unmodified 13-mer, reference compound]
TM M = A [5, 10]: 62.8 °C | ΔTM C [5, 11]: -16.3 | ΔTM G [5, 12]: -3.9 | ΔTM U [5, 13]: -13.7 | TM DNA TARGET [6, 14]: 64.2 °C | TM RNA TARGET [7, 14]: 62.8 °C

CGACG^MeCT^LTGCAGC (DNA dCdGdAdCdGd[5mC]lTdTdGdCdAdGdC) [ON4, reference compound]
TM M = A [5]: 68.9 °C | ΔTM C [5]: -15.2 | ΔTM G [5]: -4.8 | ΔTM U [5]: -13.7 | ΔTM DNA TARGET [6]: 3.3 °C | TM DNA TARGET ([6]; pH 7): 67.5 °C | ΔTM RNA TARGET [7]: 6.1 °C | TM RNA TARGET ([7]; pH 7): 68.9 °C

CGACG^MeC^LtTTGCAGC (dCdGdAdCdGl[5mC][tz]dTdTdGdCdAdGdC) [ON5, LNA on the 5′-side of the triazole]
TM DNA TARGET [6, 14]: 52.7 °C | ΔTM DNA TARGET [6, 15]: -11.5 °C | TM RNA TARGET [7, 14]: 55.5 °C | additional stabilising effect of LNA on the 5′-side of the triazole ([7]; DNA:RNA hybrids or DNA duplexes (Table 8)): no significant additional stabilising effect | ΔTM RNA TARGET [7, 15]: -7.2 °C

CGACG^MeC^LtT^LTGCAGC (DNA dCdGdAdCdGl[5mC][tz]lTdTdGdCdAdGdC) [ON6]
ΔTM DNA TARGET [6]: -5.8 | TM DNA TARGET ([6]; pH 7): 58.4 °C | additional stabilising effect of LNA on the 5′-side of the triazole [7]: no significant additional stabilising effect | ΔTM RNA TARGET [7]: +0.1 | TM RNA TARGET ([7]; pH 7): 62.9 °C

CGACG^MeCtTTGCAGC [ON3]
TM M = A [5, 10]: 56.6 °C | ΔTM C [5, 11]: -16.1 | ΔTM G [5, 12]: -2.2 | ΔTM U [5, 13]: -12.9 | TM DNA TARGET [6, 14]: 55.3 °C | ΔTM DNA TARGET [6, 15]: -8.9 °C | TM RNA TARGET [7, 14]: 56.6 °C | ΔTM RNA TARGET [7, 15]: -6.2 °C

CGACG^MeCtT^LTGCAGC (DNA dCdGdAdCdGd[5mC][tz]lTdTdGdCdAdGdC) [ON2]
TM M = A [5]: 62 °C | ΔTM C [5]: -15.6 | ΔTM G [5]: -3.3 | ΔTM U [5]: -13.4 | increase in thermal stability compared to the duplex containing only the triazole linkage [6]: 2.9 | ΔTM DNA TARGET [6]: −6.0 | TM DNA TARGET ([6]; pH 7): 58.2 °C | increase in Tm relative to the duplex with only the triazole linkage [7]: 5.4 | ΔTM RNA TARGET [7]: −0.8 | TM RNA TARGET ([7]; pH 7): 62 °C

CGA^MeCTTCT^MeCTAGC (dCdGdAd[5mC]dTdTdCdTd[5mC]dTdAdGdC) [ON7, unmodified 13-mer, reference compound]
TM DNA TARGET [8]: 57.1 °C | TM RNA TARGET [9]: 58.8 °C

CGA^MeCT^LTCT^MeCT^LAGC (dCdGdAd[5mC]lTdTdCdTd[5mC]lTdAdGdC) [ON10, two LNA, no triazole, reference compound]
TM DNA TARGET [8]: 62.2 °C | TM RNA TARGET [9]: 70.0 °C

CGA^MeCtTTCT^MeCtTAGC [ON9]
TM DNA TARGET [8]: 42.3 °C | TM RNA TARGET [9]: 47.1 °C

CGA^MeCtT^LTCT^MeCtT^LAGC [ON8]
TM DNA TARGET [8]: 48.0 °C | drop in Tm compared to unmodified ON7 ([9]; RNA target): 0.8 °C/modification | increase in Tm relative to oligonucleotides with two triazole linkages without 3′-LNA ([9]; RNA target, compare ON8 and ON9): 5.0 °C/modification | TM RNA TARGET [9]: 57.1 °C
